Data from paper PMC6956098 (2019).

How the values were obtained:
[1] = system: VDBA14 aptamer, 5'-Cy5-labeled (DNA, aptamer) AGCAGCACAGAGGTCATGGGGGGTGTGACTTTGGTGTGCCTATGCGTGCTACGGAA; assay: microscale thermophoresis; conditions: 100 mM NaCl, 5 mM KCl, 2 mM MgCl2, 1 mM CaCl2, 20 mM Tris-HCl pH 7.6, 10% ethanol, 35 °C
[2] = system: VDBA14 aptamer, immobilized on microarray (DNA, aptamer) AGCAGCACAGAGGTCATGGGGGGTGTGACTTTGGTGTGCCTATGCGTGCTACGGAA; assay: microarray fluorescence, displacement of Cy5-oligonucleotide; conditions: 100 mM NaCl, 5 mM KCl, 2 mM MgCl2, 1 mM CaCl2; 20 mM Tris-HCl pH 7.6; tracer displaced: 50 nM 5'-Cy5-AAAGTCACAC (O3); 78% maximal reduction at 2 μM
[3] = system: VDBA14 aptamer, 5'-NH2-modified (in solution) (DNA, aptamer) AGCAGCACAGAGGTCATGGGGGGTGTGACTTTGGTGTGCCTATGCGTGCTACGGAA; assay: microscale thermophoresis, displacement of Cy5-oligonucleotide; conditions: 100 mM NaCl, 5 mM KCl, 2 mM MgCl2, 1 mM CaCl2, pH 7.6, 35 °C, tracer displaced: 10 nM 5'-Cy5-AAAGTCACAC (O3), 10 nM aptamer

Row | Kd ([1]; no binding observed at room temperature) | binding [2] | apparent Kd [3] | binding ([1]; highest concentration 10 μM) | Structure (SMILES)
1 | 14.99 nM | yes | 1 ± 0.18 nM |  | C=C1CC[C@H](O)C/C1=C/C=C1\CCC[C@]2(C)[C@@H]([C@H](C)CCCC(C)(C)O)CC[C@@H]12
2 |  |  |  | no | C=C1CC[C@H](O)C/C1=C/C=C1\CCC[C@]2(C)[C@@H]([C@H](C)CCCC(C)C)CC[C@@H]12
